Experimental data: US7244608B2, “Microorganism producing 5′-inosinic acid and process for producing 5′-inosinic acid using the same” (priority 2000, dated 2007)

Assays:
[1] = test system: Corynebacterium ammoniagenes strain CJ112 (ATCC-6872); experiment: Growth on minimal agar medium containing the agent; biochemical properties of parent strain; assay type: cell-based
Description: (§1) The biochemical properties of representative variants of the novel strain CJIP009 according to the present invention is shown in the following Table 1 (This invention is not limited to the following properties).
(§2) Corynebacterium ammoniagenes strain CJ112 (ATCC-6872), the parent strain, was suspended to 10^7˜10^8 cells/mL in the phosphate buffer (pH 7.0) or citrate buffer (pH 5.5). N-methyl-N′-nitro-N-nitrosoguanidine (NTG) was added to a final concentration of 10˜50 μg/mL at room temperature or 32° C. After 20˜40 minutes, cells were washed twice with 0.85% saline. Colonies were obtained by suitably suspending and spreading cells on a minimal medium (Medium 2) containing 1.7% agar. Then, each colony was tooth picked on to the minimal medium (Medium 2) containing 1.7% agar and on the minimal medium (Medium 2) containing 1.7% agar and […] of lysozyme. First, microorganisms that grew on the minimal medium containing 1.7% agar, but not on the minimal medium containing 40 μg/mL of lysozyme were selected. […] The colony of highly lysozyme sensitive microorganisms was cultivated on a nutrition medium (Medium 1), then cultivated for 24 hours on a seed medium (Medium 3), and cultivated for 3˜4 days on a culture medium (Medium 4) thereby to select LY002 that can produce 5′-inosinic acid accumulated in the culture medium at the largest amounts.

[2] = test system: Corynebacterium ammoniagenes CJIP009 (KCCM-10226); experiment: Growth on minimal agar medium containing the agent; biochemical properties of mutant CJIP009; assay type: cell-based; conditions: strain CJIP009 (KCCM-10226)
Description: The protocol by which the mutant microorganims of the present invention was isolated began with strain CJ 12 as the parental strain and consisted of several iterations of mutagenesis and screening. In each iteration, microorganisms were treated with X-ray irradiation, ultraviolet ray irradiation, and/or a chemical mutagen, such as N-methyl-N′-nitro-N-nitrosoguanidine (NTG), diethyl sulfate, ethyl amine, etc., and then screened for 5′-inosinic acid production. Treated bacteria were suitably suspended and spread on a minimal medium (Medium 2) containing 1.7% agar and each concentration of variants. Then, each colony was cultivated on a nutrition medium (Medium 1) followed by a seed medium (Medium 3) for 24 hours and a fermentation medium (Medium 4) for […]. Colonies that produced the highest levels of 5′-inosinic acid were selected for subsequent rounds of mutagenesis.
as §1
The mutant of Example 5, strain CITP13, was used as the parent strain for Example 6. CITP13 was suspended to 10^7˜10^8 cells/mL in the phosphate buffer (pH 7.0) or citrate buffer (pH 5.5). NTG mutagenesis was performed as in Example 1. Colonies were obtained by suitably suspending and spreading cells on a 3 minimal media (Medium 2), which contained 1.7% agar and 50 μg/ml, 75 μg/ml, or 100 μg/mL of azaserine, respectively. Then, each colony was cultivated on the nutrition medium (Medium 1), then cultivated for 24 hours on a seed medium (Medium 3), and cultivated for 3–4 days on a culture medium (Medium 4) thereby to select CJIP009 (KCCM-10226) that can produce 5′-inosinic acid accumulated in the culture medium at the largest amounts.

LY002 = experiment: Growth on minimal agar medium containing the agent, strain LY002; assay type: cell-based, Corynebacterium ammoniagenes
Description: as §2
The mutant of Example 1, strain LY002, was used as the parent strain for Example 2. LY002 was suspended to 10^7˜10^8 cells/mL in the phosphate buffer (pH 7.0) or citrate buffer (pH 5.5). NTG mutagenesis was performed as in Example 1. […]

CISM10 = experiment: Growth on minimal agar medium containing the agent, strain CISM10; assay type: cell-based, Corynebacterium ammoniagenes
Description: The mutant of Example 1, strain LY002, was used as the parent strain for Example 2. LY002 was suspended to 10^7˜10^8 cells/mL in the phosphate buffer (pH 7.0) or citrate buffer (pH 5.5). NTG mutagenesis was performed as in Example 1. Colonies were obtained by suitably suspending and spreading cells on a 3 minimal media (Medium 2), which contained 1.7% agar and 1,000 μg/ml, 1,500 μg/mL or 2,000μg/mL of streptomycin, respectively. Then, each colony was cultivated on the nutrition medium (Medium 1), then cultivated for 24 hours on a seed medium (Medium 3), and cultivated for 3˜4 days on a culture medium (Medium 4) thereby to select CISM10 that can produce 5′-inosinic acid accumulated in the culture medium at the largest amounts.
The mutant of Example 2, strain CISM10, was used as the parent strain for Example 3. CISM10 was suspended to 10^7˜10^8 cells/mL in the phosphate buffer (pH 7.0) or citrate buffer (pH 5.5). NTG mutagenesis was performed as in Example 1. Colonies were obtained by suitably suspending and spreading cells on a 3 minimal media (Medium 2), which contained 1.7% agar and 1,500 μg/ml, 2,500 μg/ml, or 3,500 μg/mL of 3,4-dehydroproline, respectively. Then, each colony was cultivated on the nutrition medium (Medium 1), then cultivated for 24 hours on a seed medium (Medium 3), and cultivated for 3–4 days on a culture medium (Medium 4) thereby to select […] that can produce 5′-inosinic acid accumulated in the culture medium at the largest amounts.

CS101 = experiment: Growth on minimal agar medium containing the agent, strain CS101; assay type: cell-based, Corynebacterium ammoniagenes
the present strain = experiment: Effect of amino acids on synthesis of 5'-inosinic acid by direct fermentation; assay type: cell-based, Corynebacterium ammoniagenes; conditions: added to the medium
Text: Accordingly, the present inventors tested the effect of various amino acids on the synthesis of 5′-inosinic acid by direct fermentation. As the result, the inventors determined that the fermentation concentration of 5′-inosinic acid increased upon addition of L-glutamine to the medium. The inventors further determined that the appropriate supply of L-glutamine to the present strain is a rate-limiting step in the synthesis of 5′-inosinic acid.

CIAC12 = experiment: Growth on minimal agar medium containing the agent, strain CIAC12; assay type: cell-based, Corynebacterium ammoniagenes
Description: The mutant of Example 3, strain CS101, was used as the parent strain for Example 4. CS101 was suspended to 10^7˜10^8 cells/mL in the phosphate buffer (pH 7.0) or citrate buffer (pH 5.5). NTG muta genesis was performed as in Example 1. Colonies were obtained by suitably suspending and spreading cells on a 3 minimal media (Medium 2), which contained 1.7% agar and 10 μg/ml, 20 μg/ml, or 30 μg/mL of L-azetidine-2-carboxylic acid, respectively. Then, each colony was cultivated on the nutrition medium (Medium 1), then cultivated for 24 hours on a seed medium (Medium 3), and cultivated for 3˜4 days on a culture medium (Medium 4), thereby to select CIAC12 that can produce 5′-inosinic acid accumulated in the culture medium at the largest amounts.

CITP13 = experiment: Growth on minimal agar medium containing the agent, strain CITP13; assay type: cell-based, Corynebacterium ammoniagenes
Description: The mutant of Example 4, strain CIAC12, was used as the parent strain for Example 5. CIAC12 was suspended to 10^7˜10^8 cells/mL in the phosphate buffer (pH 7.0) or citrate buffer (pH 5.5). NTG mutagenesis was performed as in Example 1. Colonies were obtained by suitably suspending and spreading cells on a 3 minimal media (Medium 2), which contained 1.7% agar and 20 μg/ml, 50 μg/ml, or 100 μg/mL of L-thiazolidine-4-carboxylic acid, respectively. Then, each colony was cultivated on the nutrition medium (Medium 1), then cultivated for 24 hours on a seed medium (Medium 3), and, cultivated for 3˜4 days on a culture medium (Medium 4) thereby to select CITP13 that can produce 5′-inosinic acid accumulated in the culture medium at the largest amounts.
The mutant of Example 5, strain CITP13, was used as the parent strain for Example 6. CITP13 was suspended to 10^7˜10^8 cells/mL in the phosphate buffer (pH 7.0) or citrate buffer (pH 5.5). NTG mutagenesis was performed as in Example 1. Colonies were obtained by suitably suspending and spreading cells on a 3 minimal media (Medium 2), which contained 1.7% agar and 50 μg/ml, 75 μg/ml, or 100 μg/mL of azaserine, respectively. […]

lysozyme
Sensitivity to lysozyme (minimal growth inhibition concentration) ([1]; strain ATCC6872): 80 µg/mL
Concentration of lysozyme at which the microorganism shows sensitivity ([1]; strain CJ112): 80 µg/mL
Sensitivity to lysozyme (minimal growth inhibition concentration) [2]: 8 µg/mL
Concentration of lysozyme at which the microorganism shows sensitivity (LY002): 8 µg/mL

O=C(O)C1C=CCN1 (stereo not shown) [3,4-dehydroproline]
Resistance to agent (concentration) ([1]; strain ATCC6872): 1,000 μg/ml
Resistance to agent (concentration) [2]: 3,500 μg/ml
Concentration of 3,4-dehydroproline at which the microorganism shows resistance (CISM10): 1,000 μg/ml
Concentration of 3,4-dehydroproline at which the microorganism shows resistance (CS101): 3,500 μg/ml

NC(=O)CC[C@H](N)C(=O)O [L-glutamine]
Fermentation concentration of 5'-inosinic acid upon addition to the medium (the present strain): increased

O=C(O)[C@@H]1CCN1 [L-azetidine-2-carboxylic acid]
Resistance to agent (concentration) ([1]; strain ATCC6872): 5000 µg/mL
Resistance to agent (concentration) [2]: 30000 µg/mL
Concentration of L-azetidine-2-carboxylic acid at which the microorganism shows resistance (CISM10): 5 mg/mL
Concentration of L-azetidine-2-carboxylic acid at which the microorganism shows resistance (CIAC12): 30 mg/mL

O=C(O)[C@@H]1CSCN1 [L-thiazolidine-4-carboxylic acid]
Resistance to agent (concentration) ([1]; strain ATCC6872): 10 µg/mL
Resistance to agent (concentration) [2]: 100 µg/mL
Concentration of L-thiazolidine-4-carboxylic acid at which the microorganism shows resistance (CISM10): 10 µg/mL
Concentration of L-thiazolidine-4-carboxylic acid at which the microorganism shows resistance (CS101): 100 µg/mL

[H]/N=C(/N)N[C@H]1[C@H](O)[C@@H](O)[C@H](O[C@@H]2O[C@@H](C)[C@](O)(C=O)[C@H]2O[C@@H]2O[C@@H](CO)[C@H](O)[C@@H](O)[C@@H]2NC)[C@@H](N/C(N)=N\[H])[C@@H]1O [Streptomycin, streptomycin]
Resistance to agent (concentration) ([1]; strain ATCC6872): 500 µg/mL
Resistance to agent (concentration) [2]: 2,000 μg/ml
Concentration of streptomycin at which the microorganism shows resistance (LY002): 500 µg/mL
Concentration of streptomycin at which the microorganism shows resistance (CISM10): 2,000 μg/ml

[N-]=[N+]=CC(=O)OC[C@H](N)C(=O)O [Azaserine]
Resistance to agent (concentration) ([1]; strain ATCC6872): 25 µg/mL
Concentration of azaserine at which the microorganism shows resistance [2]: 100 µg/mL
Resistance to agent (concentration) [2]: 100 µg/mL
Concentration of azaserine at which the microorganism shows resistance (CITP13): 25 µg/mL
